biological target: T1, Tyrosine-protein phosphatase non-receptor type 11 (Homo sapiens, UniProt Q06124); assay: Allosteric Inhibition Assay
T1 sequence (Q06124 whole entry): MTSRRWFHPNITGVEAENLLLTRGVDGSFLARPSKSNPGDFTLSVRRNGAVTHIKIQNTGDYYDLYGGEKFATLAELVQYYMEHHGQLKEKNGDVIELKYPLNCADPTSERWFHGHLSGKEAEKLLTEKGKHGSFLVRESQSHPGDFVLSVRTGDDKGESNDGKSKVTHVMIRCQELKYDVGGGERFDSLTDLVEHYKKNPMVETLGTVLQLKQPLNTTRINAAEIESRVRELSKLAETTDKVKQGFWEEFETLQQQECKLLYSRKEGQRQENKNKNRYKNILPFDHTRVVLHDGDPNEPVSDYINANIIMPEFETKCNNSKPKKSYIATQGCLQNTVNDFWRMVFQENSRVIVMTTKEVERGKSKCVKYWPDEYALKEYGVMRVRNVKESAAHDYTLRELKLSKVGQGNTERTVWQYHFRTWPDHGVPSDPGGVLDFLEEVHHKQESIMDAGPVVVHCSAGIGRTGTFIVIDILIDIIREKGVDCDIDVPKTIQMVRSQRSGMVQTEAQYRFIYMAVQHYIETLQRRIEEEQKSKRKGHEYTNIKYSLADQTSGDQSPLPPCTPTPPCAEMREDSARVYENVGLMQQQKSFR

SMILES	IC50 [nM]
N[C@@H]1c2ccccc2CC12CCN(c1cnc(/C(=N/O)c3ccccc3)cn1)CC2 [US10934302, Example 257]	< 50
N[C@@H]1c2ccccc2CC12CCN(c1cnc(SCC3CC3)cn1)CC2 [US10934302, Example 266]	< 50
Cc1cc(C(=O)N2CCC3(CC2)Cc2ccccc2[C@H]3N)nn1-c1ccc(F)cc1F [US10934302, Example 289]	< 50

Reference: BindingDB's records for patent US10934302 (Relay Therapeutics, 2021)
